This note sets out measurements from patent US11077206B2, “Composition for gene therapy or transfection, and preparation method and use thereof” (SHANGHAI CHANGZHENG HOSPITAL, priority 2017, dated 2021).

Each structure is given as a SMILES string.

The data set relates to Hela-luci cells. Kind of data set: cytotoxicity in Hela-luci cells by MTT method. Format: cell-based. The following applies: 24 hours, siRNA (and cationic polymer where named) at transfection concentration, EGCG dose well above the transfection dose. Here is the method: (§1) A method for studying the cytotoxicity of the natural polyphenol EGCG in the present invention comprises steps of: incubating Hela-luci cells in a 96-well plate at a cell density of 10^4 cells/well, removing a medium after incubation for 12 hours, and adding 100 μl fresh medium containing the siRNA whose concentration is the same as transfection concentration and a certain amount of EGCG, where the concentration of EGCG is from low to high (comprising the transfection concentration), and a final concentration is much higher than the transfection concentration; culturing for 24 hours, and measuring cytotoxicity by a MTT method.
as §1, with “polyphenol EGCG and cationic polymer LPEI in the” for “polyphenol EGCG in the”, “the siRNA and LPEI whose concentration” for “the siRNA whose concentration”, “MTT method. […]” for “MTT method.”
Background: Tetrazolium assays rely on reduction of a dye to a coloured formazan, in cell work by metabolically active cells.

Turning to `O=C(O[C@@H]1Cc2c(O)cc(O)cc2O[C@@H]1c1cc(O)c(O)c(O)c1)c1cc(O)c(O)c(O)c1` [EGCG], the cell viability result is “more than 90%”.
